Source: article PMC9120017, “Inhibition mechanism of the chloride channel TMEM16A by the pore blocker 1PBC” (Nature Communications, 2022)
pIC50: −log10 of the molar value. Where two headings read alike, the source gives them in different places.

Biological target: T1, mouse TMEM16A mutant N546A (Mus musculus, UniProt Q8BHY3, N546A)
T1 construct: expressed in transfected cells; host or cells: HEK293T
T1 sequence (Q8BHY3 1-960 N546A): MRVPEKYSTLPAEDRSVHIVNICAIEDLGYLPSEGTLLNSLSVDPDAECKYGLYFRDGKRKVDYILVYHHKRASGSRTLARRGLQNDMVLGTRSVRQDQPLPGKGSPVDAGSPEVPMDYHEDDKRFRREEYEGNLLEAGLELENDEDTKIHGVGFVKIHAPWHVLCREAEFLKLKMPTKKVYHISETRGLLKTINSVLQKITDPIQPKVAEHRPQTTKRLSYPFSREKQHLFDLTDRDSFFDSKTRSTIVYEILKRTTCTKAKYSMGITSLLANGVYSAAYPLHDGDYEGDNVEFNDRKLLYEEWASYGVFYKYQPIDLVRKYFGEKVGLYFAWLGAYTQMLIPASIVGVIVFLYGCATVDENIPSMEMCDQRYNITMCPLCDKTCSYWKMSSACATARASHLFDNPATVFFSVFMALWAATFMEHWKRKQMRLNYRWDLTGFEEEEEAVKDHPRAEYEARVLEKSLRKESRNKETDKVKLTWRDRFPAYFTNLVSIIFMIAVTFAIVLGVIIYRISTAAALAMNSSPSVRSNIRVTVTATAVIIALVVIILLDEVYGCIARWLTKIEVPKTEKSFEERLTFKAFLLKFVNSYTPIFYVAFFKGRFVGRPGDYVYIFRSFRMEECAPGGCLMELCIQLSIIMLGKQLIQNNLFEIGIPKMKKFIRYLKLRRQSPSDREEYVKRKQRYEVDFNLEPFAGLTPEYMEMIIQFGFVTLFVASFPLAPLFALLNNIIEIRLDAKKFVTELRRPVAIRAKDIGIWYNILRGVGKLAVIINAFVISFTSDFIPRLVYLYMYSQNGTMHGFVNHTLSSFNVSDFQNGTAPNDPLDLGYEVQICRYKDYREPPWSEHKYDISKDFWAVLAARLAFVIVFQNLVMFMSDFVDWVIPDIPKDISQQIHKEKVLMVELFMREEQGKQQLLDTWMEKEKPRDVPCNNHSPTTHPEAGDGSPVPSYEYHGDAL
Assay: Inside-out patch recording of 1PBC block, mutant N546A
Type: cell-based
Details: for remaining activity at 1 µM: 1PBC 1; for remaining activity at 1 µM / remaining activity at 3 µM / remaining activity at 10 µM: read-out: fraction of unblocked current; for remaining activity at 3 µM: 1PBC 3; for remaining activity at 10 µM: 1PBC 10
Procedure: HEK293T cells (ATCC CRL-1573) were maintained in Dulbecco’s modified Eagle’s medium (DMEM; Sigma-Aldrich) supplemented with 10 U ml^−1 penicillin, 0.1 mg ml^−1 streptomycin (Sigma-Aldrich), 2 mM L-glutamine (Sigma-Aldrich), and 10% FBS (Sigma-Aldrich) in a humidified atmosphere containing 5% CO2 at 37 °C. HEK293S GnTI^− cells (ATCC CRL-3022) were maintained in HyClone HyCell TransFx-H medium (GE Healthcare) supplemented with 10 U ml^−1 penicillin, 0.1 mg ml^−1 streptomycin, 4 mM L-glutamine, 0.15% poloxamer 188 (Sigma-Aldrich), and 1% FBS in an atmosphere containing 5% CO2 at 185 rpm at 37 °C. The ac splice variant of mouse TMEM16A (UniProt ID: Q8BHY3), mouse TMEM16B (UniProt ID: Q8CFW1), or mouse TMEM16F (UniProt ID: Q6P9J9) bearing a 3C cleavage site, a Venus YFP, a Myc tag, and a Streptavidin-binding peptide (SBP) downstream of the open reading frame in a modified pcDNA3.1 vector (Invitrogen) were used as described previously[21],[31]. Mutations were introduced using a modified QuikChange method[58] and were verified by sequencing.
HEK293T cells were transfected with 3–4 μg DNA per 6 cm Petri dish using the calcium phosphate co-precipitation method and were used within 24–96 h after transfection. Recordings were performed on inside-out patches excised from HEK293T cells expressing the construct of interest. Patch pipettes were pulled from borosilicate glass capillaries (O.D. 1.5 mm, I.D. 0.86 mm, Sutter Instrument) and were fire-polished with a microforge (Narishige) before use. Pipette resistance was typically 3–8 MΩ when filled with the recording solutions detailed below. Seal resistance was typically 4 GΩ or higher. Voltage-clamp recordings were made using Axopatch 200B, Digidata 1550, and Clampex 10.7 (Molecular Devices). Analog signals were filtered with the in-built 4-pole Bessel filter at 10 kHz and were digitized at 20 kHz. Solution exchange was achieved using a gravity-fed system through a theta glass pipette mounted on an ultra-fast piezo-driven stepper (Siskiyou). […] All recordings were performed at 20 °C.
A symmetrical ionic condition was used throughout. Stock solution with Ca^2+-EGTA contained 150 mM NaCl, 5.99 mM Ca(OH)2, 5 mM EGTA, and 10 mM HEPES at pH 7.40. Stock solution with EGTA contained 150 mM NaCl, 5 mM EGTA, and 10 mM HEPES at pH 7.40. Free Ca^2+ concentrations were adjusted by mixing the stock solutions at the required ratios calculated using the WEBMAXC program (http://web.stanford.edu/~cpatton/webmaxcS.htm). Patch pipettes were filled with the stock solution with Ca^2+-EGTA, which has a free Ca^2+ concentration of 1 mM. 1PBC (ChemBridge) stock was reconstituted in anhydrous DMSO (Sigma-Aldrich) at 100 mM and stored at −20 °C. Working solutions with 1PBC were prepared by serial dilution. Unless otherwise stated, experiments were performed at a saturating Ca^2+ concentration as shown in Supplementary Table 1 and the primary data were corrected for current rundown as described previously[21],[25].
Concentration-response relations, obtained from the ratio of the I-V plots before and after the application of the blocker, were fitted to the Hill equation,1 I/Imax=1/1+IC50/[blocker]^h where I/Imax is the normalized current responses, IC50 defines the concentration at which inhibition is at its half-maximum, and h is the Hill coefficient.

- pIC50 (0 mV, 2 µM Ca2+): 6.23
- remaining activity at 1 µM (0 mV): 35.3%
- remaining activity at 1 µM (20 mV): 28.4%
- remaining activity at 1 µM (40 mV): 22%
- remaining activity at 1 µM (60 mV): 19.8%
- remaining activity at 1 µM (80 mV): 18.3%
- remaining activity at 1 µM (100 mV): 19.3%
- remaining activity at 1 µM (120 mV): 20.4%
- remaining activity at 1 µM (140 mV): 24.4%
- remaining activity at 1 µM (-20 mV): 42.1%
- remaining activity at 1 µM (-40 mV): 47.5%
- remaining activity at 1 µM (-60 mV): 55.1%
- remaining activity at 1 µM (-80 mV): 60.7%
- remaining activity at 1 µM (-100 mV): 65.9%
- remaining activity at 1 µM (-120 mV): 69.4%
- remaining activity at 1 µM (-140 mV): 71.9%
- remaining activity at 3 µM (0 mV): 16.8%
- remaining activity at 3 µM (20 mV): 12.7%
- remaining activity at 3 µM (40 mV): 11%
- remaining activity at 3 µM (60 mV): 8.55%
- remaining activity at 3 µM (80 mV): 9.38%
- remaining activity at 3 µM (100 mV): 9.83%
- remaining activity at 3 µM (120 mV): 10.5%
- remaining activity at 3 µM (140 mV): 17.6%
- remaining activity at 3 µM (-20 mV): 20.8%
- remaining activity at 3 µM (-40 mV): 25.6%
- remaining activity at 3 µM (-60 mV): 31.9%
- remaining activity at 3 µM (-80 mV): 36.9%
- remaining activity at 3 µM (-100 mV): 42.7%
- remaining activity at 3 µM (-120 mV): 48.5%
- remaining activity at 3 µM (-140 mV): 51.2%
- remaining activity at 10 µM (0 mV): 5.97%
- remaining activity at 10 µM (20 mV): 5.12%
- remaining activity at 10 µM (40 mV): 3.23%
- remaining activity at 10 µM (60 mV): 3.5%
- remaining activity at 10 µM (80 mV): 3.36%
- remaining activity at 10 µM (100 mV): 5.03%
- remaining activity at 10 µM (120 mV): 4.78%
- remaining activity at 10 µM (140 mV): 10.2%
- remaining activity at 10 µM (-20 mV): 6.81%
- remaining activity at 10 µM (-40 mV): 10.2%
- remaining activity at 10 µM (-60 mV): 13.2%
- remaining activity at 10 µM (-80 mV): 16.4%
- remaining activity at 10 µM (-100 mV): 19.7%
- remaining activity at 10 µM (-120 mV): 24.7%
- remaining activity at 10 µM (-140 mV): 27.4%
- pIC50 (20 mV, 2 µM Ca2+): 6.37
- pIC50 (40 mV, 2 µM Ca2+): 6.49
- pIC50 (60 mV, 2 µM Ca2+): 6.57
- log-fold IC50 (change of mutant vs WT) (80 mV): -0.9263
- pIC50 (80 mV, 2 µM Ca2+): 6.62
- pIC50 (100 mV, 2 µM Ca2+): 6.63
- pIC50 (120 mV, 2 µM Ca2+): 6.62
- pIC50 (140 mV, 2 µM Ca2+): 6.50
- pIC50 (-20 mV, 2 µM Ca2+): 6.09
- pIC50 (-40 mV, 2 µM Ca2+): 5.99
- pIC50 (-60 mV, 2 µM Ca2+): 5.87
- pIC50 (-80 mV, 2 µM Ca2+): 5.76
- pIC50 (-100 mV, 2 µM Ca2+): 5.66
- pIC50 (-120 mV, 2 µM Ca2+): 5.56
- pIC50 (-140 mV, 2 µM Ca2+): 5.51
- pIC50 (N546A, V 0 mV): 6.23
- pIC50 (N546A, V 20 mV): 6.37
- pIC50 (N546A, V 40 mV): 6.49
- pIC50 (N546A, V 60 mV): 6.57
- pIC50 (N546A, V 80 mV): 6.62
- pIC50 (N546A, V 100 mV): 6.63
- pIC50 (N546A, V 120 mV): 6.62
- pIC50 (N546A, V 140 mV): 6.50
- pIC50 (N546A, V -20 mV): 6.09
- pIC50 (N546A, V -40 mV): 5.99
- pIC50 (N546A, V -60 mV): 5.86
- pIC50 (N546A, V -80 mV): 5.77
- pIC50 (N546A, V -100 mV): 5.66
- pIC50 (N546A, V -120 mV): 5.56
- pIC50 (N546A, V -140 mV): 5.51
Structure (SMILES): N#Cc1c(C(F)(F)F)cc(O)n2c1nc1ccccc12 [1PBC]
